The source of these data is patent publication US9409952B2, “Peptide-compound cyclization method” (Chugai Seiyaku Kabushiki Kaisha, priority 2011, dated 2016).

The nature of series [1]: PAMPA (parallel artificial membrane permeability assay). In kind it is in vitro ADME. The settings on record: PAMPA. In a few lines: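 Artificial membrane was 10% (w/v) egg lecithin plus 0.5% (w/v) cholesterol in dodecane on a PVDF filter. A 10 mM DMSO stock was added at 0.5% (v/v) to donor buffer (50 mM MOPSO, pH 6.5, 5.0% glycocholic acid). After 18 h at 37 °C, LC/MS or LC/UV gave donor and acceptor levels for Pe.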
(PAMPA measures passive passage across an artificial lipid membrane.)

Series [2] is described as follows: Metabolic stability in human hepatic microsome. Format: in vitro ADME. Conditions: microsomes.
[3] abbreviates: membrane permeation rate (Pe), 50 mM MOPSO buffer pH 6.5 with 5.0% glycocholic acid, 37° C., 18 hours, read-out: iPAMPA Pe.
[4] abbreviates: pH 7.4, human hepatic microsome, NADPH(+), read-out: CL NADPH(+).

Where two headings read alike, the source gives them in different places. Starred links: 1 amine or outer side, 2 acyl side, 3 side chain; linkers in the order of their positions; H or OH if unused. Positions of bridges follow the written chain, without caps; N, C: chain ends. Non-standard residues stand in square brackets, D forms with d. Residues, ends and D or L forms follow the SMILES beside them. *: point of attachment. NMeF = CN[C@@H](Cc1ccccc1)C(=O)O; NMeGABA = CN(CCCC(=O)[*:2])[*:1]; NMeI = CC[C@H](C)[C@H](NC)C(=O)O; NMeL = CN[C@@H](CC(C)C)C(=O)O; NMeV = CN[C@H](C(=O)O)C(C)C; NMeA = CN[C@@H](C)C(=O)O; Piperidide = C1CCN(*)CC1; dNMeA = CN[C@H](C)C(=O)O; β3hA = C[C@H](N)CC(=O)O; Sar = CNCC(=O)O; tBu = CC(C)(C)*

`CC[C@H](C)[C@H]1C(=O)N[C@@H]([C@@H](C)O)C(=O)N(C)[C@@H](C)C(=O)N(C)[C@@H](CC(C)C)C(=O)N[C@H](C(=O)N2CCCCC2)CC(=O)N(C)CC(=O)N(C)[C@@H](CC(C)C)C(=O)N[C@@H](CC(C)C)C(=O)N(C)[C@@H](Cc2ccccc2)C(=O)N[C@@H](COC(C)(C)C)C(=O)N(C)[C@@H](Cc2ccccc2)C(=O)N1C` [DP-69] ([Sar][NMeL]L[NMeF]S(tBu)[NMeF][NMeI]T[NMeA][NMeL]D-Piperidide; lactam N-11): the Papp at 18 hours, 50 µM in series [1] (pH 6.5) is 21 ×10⁻⁶ cm/s. The molecule also registered a microsomal CLint at 1 uM in series [2] (human, pH 7.4, CL NADPH(+)) of 68 µL/min/mg.

Take `CC(C)C[C@H]1C(=O)N(C)[C@@H](CC(C)C)C(=O)N(C)CC(=O)N(C)[C@@H](Cc2ccccc2)C(=O)N[C@@H](C)C(=O)N(C)[C@@H](Cc2ccccc2)C(=O)N(C)[C@@H](CC(C)C)C(=O)N[C@@H]([C@@H](C)O)C(=O)N[C@H](C(=O)N2CCCCC2)CC(=O)N[C@H](C(C)C)C(=O)N(C)[C@@H](C)C(=O)N1C` [DP-151] ([dV][NMeA][NMeL][NMeL][Sar][NMeF]A[NMeF][NMeL]TD-Piperidide; lactam N-11): the Papp at 18 hours, 50 µM in series [1] (setting [3]) was 27 ×10⁻⁶ cm/s. Moreover, the microsomal CLint at 1 uM in series [2] (setting [4]) stood at 30 µL/min/mg.

Regarding `CC(C)C[C@H]1C(=O)N[C@@H]([C@@H](C)O)C(=O)N(C)[C@@H](C)C(=O)N(C)[C@@H](Cc2ccccc2)C(=O)N(C)CC(=O)N[C@@H](C)C(=O)N(C)[C@@H](Cc2ccccc2)C(=O)N(C)[C@@H](CC(C)C)C(=O)N[C@H](C(=O)N2CCCCC2)CC(=O)N(C)[C@H](C)C(=O)N(C)[C@@H](C)C(=O)N1C` [DP-419] ([dNMeA][NMeA][NMeL]T[NMeA][NMeF][Sar]A[NMeF][NMeL]D-Piperidide; lactam N-11), in series [1] (setting [3]), the Papp at 18 hours, 50 µM amounted to 6.7 ×10⁻⁶ cm/s. Besides, the microsomal CLint at 1 uM in series [2] (setting [4]) stood at 17 µL/min/mg.

In series [1] (pH 6.5), `CC[C@H](C)[C@@H]1NC(=O)[C@H](CC(C)C)N(C)C(=O)[C@H](C)NC(=O)CCCN(C)C(=O)C[C@H](C)NC(=O)[C@H]([C@@H](C)O)NC(=O)[C@H](Cc2ccccc2)NC(=O)[C@H](C(C)C)N(C)C(=O)[C@H](C)N(C)C(=O)[C@H](Cc2ccccc2)N(C)C1=O` [DP-778] (cyclo(A[NMeL]I[NMeF][NMeA][NMeV]FT[β3hA][NMeGABA])) yielded a Papp at 18 hours, 50 µM of 26 ×10⁻⁶ cm/s. The microsomal CLint at 1 uM in series [2] (human, pH 7.4, CL NADPH(+)) stood at 139 µL/min/mg.

On to `CC(C)C[C@H]1C(=O)N[C@@H](C)C(=O)N(C)[C@@H](Cc2ccccc2)C(=O)N(C)[C@@H](C)C(=O)N(C)[C@@H](Cc2ccccc2)C(=O)N[C@@H]([C@@H](C)O)C(=O)N(C)[C@@H](C)C(=O)N[C@H](C(=O)N2CCCCC2)CC(=O)N(C)[C@H](C)C(=O)N(C)[C@@H](C)C(=O)N1C` [DP-341] ([dNMeA][NMeA][NMeL]A[NMeF][NMeA][NMeF]T[NMeA]D-Piperidide; lactam N-10), for which the Papp at 18 hours, 50 µM in series [1] (setting [3]) stood at 9.5 ×10⁻⁶ cm/s. Moreover, the microsomal CLint at 1 uM in series [2] (setting [4]) worked out at 69 µL/min/mg.

As to `CC[C@H](C)[C@H]1C(=O)N[C@H](C(=O)N2CCCCC2)CC(=O)N[C@H](C)C(=O)N[C@@H](Cc2ccccc2)C(=O)N(C)[C@@H](C)C(=O)N(C)[C@@H](C(C)C)C(=O)N[C@@H]([C@@H](C)O)C(=O)N(C)CC(=O)N(C)[C@@H](CC(C)C)C(=O)N[C@@H](C)C(=O)N1C` [DP-135] ([dA]F[NMeA][NMeV]T[Sar][NMeL]A[NMeI]D-Piperidide; lactam N-10), the Papp at 18 hours, 50 µM in series [1] (setting [3]) came to 5.2 ×10⁻⁶ cm/s. Further, the microsomal CLint at 1 uM in series [2] (setting [4]) came out at 15 µL/min/mg.

Turning to `CC(C)C[C@@H]1NC(=O)[C@H](CC(C)C)N(C)C(=O)[C@H](C)N(C)C(=O)[C@@H](C(C)C)NC(=O)C[C@@H](C(=O)N2CCCCC2)NC(=O)[C@H](CCC(=O)N(C)C)NC(=O)[C@H](CC(C)C)N(C)C(=O)[C@H](C)N(C)C(=O)[C@H](CC(C)C)N(C)C(=O)[C@H](Cc2ccccc2)NC(=O)[C@H](Cc2ccccc2)N(C)C1=O` [DP-618] ([dV][NMeA][NMeL]L[NMeF]F[NMeL][NMeA][NMeL]E(NMe2)D-Piperidide; lactam N-11), the Papp at 18 hours, 50 µM in series [1] (setting [3]) is 28 ×10⁻⁶ cm/s. In series [2] (setting [4]), the microsomal CLint at 1 uM was 39 µL/min/mg.
